Test results: patent US9999704B2, “Amphiphilic degradable polymers for immobilization and sustained delivery of biomolecules” (University of Massachusetts, priority 2014, dated 2018)

Test system: Human umbilical vein endothelial cells (HUVECs)
Assay: HUVEC-Matrigel tube formation assay
Format: cell-based
Conditions: free S1P solution, 17 h
Description: The electrospun meshes were punched into circles of 6.3 mm in diameter, weighed and sterilized with UV irradiation (254 nm, 1 h for each side). Fresh S1P solutions in PBS were carefully loaded onto each mesh (for S1P release study: 5 μL of 0.76-μg/μL solution to achieve 3.8-μg S1P loading per mesh; for tube formation assay: 2 or 10 μL of 0.19-μg/μL solution to achieve 0.38-μg or 1.90-μg S1P loading per mesh). The S1P-loaded meshes were incubated at 37° C. for 1 h and 4° C. for another 4 h before they were air-dried in laminar flow hood overnight.
Human umbilical vein endothelial cells (HUVECs, ATCC, passage 6), were cultured on gelatin-coated plates in M199 medium with 20% fetal bovine serum (FBS), 3 ng/mL bFGF, 5 units/mL heparin and 100 U/100 μg/mL Pen/Strep at 37° C. under 5% CO2. The 96-well culture plate was coated with 50 μL/well growth factor reduced Matrigel and incubated at 37° C. for 0.5 h to allow Matrigel to solidify. Then HUVECs suspended in 100 μL of M199 medium with 0.1% FBS and 100 U/100 μg/mL Pen/Strep were seeded on the Matrigel at 2×10^4 cells/well. After 30 min of cell attachment, PBS solutions of S1P or S1P-loaded meshes were carefully added to each well, followed by continued incubation at 37° C. for 17 h. After removing the meshes and culture media, the HUVECs were fixed with 10% formalin saline solution and imaged with an Axiovert 40 CFL microscope equipped with a QImaging camera at 25× and 100× magnifications. The total tube length in each well (n=3-4) was quantified by ImageJ (NIH).

## CCCCCCCCCCCCC/C=C/[C@@H](O)[C@@H](N)COP(=O)(O)O [S1P, Sphingosine-1-phosphate]
1-μM, no polymer carrier
  total tube length: increased
10-μM, no polymer carrier
  total tube length: proangiogenic effect was compromised
50-μM, vs. no-S1P control
  total tube length: significantly inhibited tube formation
